The text below walks through data of BindingDB's records for doi:10.1016/j.chembiol.2010.02.007 (Harvard Medical School, 2010).

What all share (assay): In Vitro Activity Kinase Assay
In experiment [1] the target is Fibroblast growth factor receptor 1 (Homo sapiens, UniProt P11362). As for the experimental part:
(§1) In vitro kinase assay profiled against a panel of different kinase binding assay using Ambit kinomeScan technology. Biochemical IC50 values were determined using the Z'-lyte assays format from Invitrogen.

Experiment [2] addresses Fibroblast growth factor receptor 2 (Homo sapiens, UniProt P21802). As for the experimental part:
as §1

For experiment [3], the target named is Fibroblast growth factor receptor 3 (Homo sapiens, UniProt P22607). As for the experimental part: as §1
For experiment [4], the target named is Fibroblast growth factor receptor 4 (Homo sapiens, UniProt P22455). As for the experimental part: as §1
Experiment [5] addresses Hepatocyte growth factor receptor (Homo sapiens, UniProt P08581). As for the experimental part:
as §1

Experiment [6] concerns the target Mast/stem cell growth factor receptor Kit (Homo sapiens, UniProt P10721). As for the experimental part:
as §1

Experiment [7] has as its target Mitogen-activated protein kinase 7 (Homo sapiens, UniProt Q13164). As for the experimental part: as §1
Experiment [8] concerns the target Platelet-derived growth factor receptor beta (Homo sapiens, UniProt P09619). As for the experimental part: as §1
Experiment [9] deals with Tyrosine-protein kinase Blk (Homo sapiens, UniProt P51451). As for the experimental part:
as §1

The target of experiment [10] is Vascular endothelial growth factor receptor 1 (Homo sapiens, UniProt P17948). As for the experimental part: as §1
Experiment [11] deals with Vascular endothelial growth factor receptor 2 (Homo sapiens, UniProt P35968). As for the experimental part: as §1
The target of experiment [12] is Vascular endothelial growth factor receptor 3 (Homo sapiens, UniProt P35916). As for the experimental part: as §1

Hepatocyte growth factor receptor, sequence (P08581 whole entry): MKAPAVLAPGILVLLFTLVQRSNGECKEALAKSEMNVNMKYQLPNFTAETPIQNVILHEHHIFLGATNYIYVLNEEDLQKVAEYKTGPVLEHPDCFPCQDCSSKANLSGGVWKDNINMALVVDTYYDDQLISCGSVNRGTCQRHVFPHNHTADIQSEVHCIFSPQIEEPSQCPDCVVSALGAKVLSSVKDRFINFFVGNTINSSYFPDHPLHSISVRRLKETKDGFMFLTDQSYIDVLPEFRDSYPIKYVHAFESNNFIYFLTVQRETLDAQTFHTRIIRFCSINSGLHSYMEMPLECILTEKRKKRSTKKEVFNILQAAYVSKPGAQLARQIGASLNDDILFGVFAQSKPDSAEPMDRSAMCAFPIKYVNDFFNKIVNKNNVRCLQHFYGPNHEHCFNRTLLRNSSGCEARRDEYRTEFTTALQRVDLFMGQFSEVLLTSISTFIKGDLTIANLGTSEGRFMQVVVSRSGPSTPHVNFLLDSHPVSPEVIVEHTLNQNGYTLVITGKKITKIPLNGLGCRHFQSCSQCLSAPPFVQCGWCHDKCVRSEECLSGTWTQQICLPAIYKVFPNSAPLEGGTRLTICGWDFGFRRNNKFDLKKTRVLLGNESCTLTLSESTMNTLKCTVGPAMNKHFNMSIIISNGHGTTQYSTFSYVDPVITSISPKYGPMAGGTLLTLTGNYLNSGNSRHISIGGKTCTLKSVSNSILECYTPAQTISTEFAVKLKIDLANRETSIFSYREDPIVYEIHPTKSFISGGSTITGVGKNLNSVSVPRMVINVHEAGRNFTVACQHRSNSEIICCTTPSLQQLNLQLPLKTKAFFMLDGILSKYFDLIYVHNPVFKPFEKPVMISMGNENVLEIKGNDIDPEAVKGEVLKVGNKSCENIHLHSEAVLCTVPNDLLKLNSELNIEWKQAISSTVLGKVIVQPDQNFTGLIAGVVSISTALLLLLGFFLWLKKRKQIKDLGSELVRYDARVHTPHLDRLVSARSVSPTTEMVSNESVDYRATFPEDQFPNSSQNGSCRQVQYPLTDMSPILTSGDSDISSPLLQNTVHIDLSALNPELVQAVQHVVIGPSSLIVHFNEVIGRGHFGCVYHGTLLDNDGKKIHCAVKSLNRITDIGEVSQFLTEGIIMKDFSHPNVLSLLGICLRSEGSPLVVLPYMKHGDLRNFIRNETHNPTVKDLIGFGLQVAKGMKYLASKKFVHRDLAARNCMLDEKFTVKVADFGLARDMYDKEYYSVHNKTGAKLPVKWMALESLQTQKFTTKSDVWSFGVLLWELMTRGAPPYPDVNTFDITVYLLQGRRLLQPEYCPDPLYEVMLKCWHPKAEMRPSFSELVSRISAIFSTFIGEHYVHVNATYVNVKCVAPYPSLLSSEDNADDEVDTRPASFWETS
Fibroblast growth factor receptor 1, sequence (P11362 whole entry): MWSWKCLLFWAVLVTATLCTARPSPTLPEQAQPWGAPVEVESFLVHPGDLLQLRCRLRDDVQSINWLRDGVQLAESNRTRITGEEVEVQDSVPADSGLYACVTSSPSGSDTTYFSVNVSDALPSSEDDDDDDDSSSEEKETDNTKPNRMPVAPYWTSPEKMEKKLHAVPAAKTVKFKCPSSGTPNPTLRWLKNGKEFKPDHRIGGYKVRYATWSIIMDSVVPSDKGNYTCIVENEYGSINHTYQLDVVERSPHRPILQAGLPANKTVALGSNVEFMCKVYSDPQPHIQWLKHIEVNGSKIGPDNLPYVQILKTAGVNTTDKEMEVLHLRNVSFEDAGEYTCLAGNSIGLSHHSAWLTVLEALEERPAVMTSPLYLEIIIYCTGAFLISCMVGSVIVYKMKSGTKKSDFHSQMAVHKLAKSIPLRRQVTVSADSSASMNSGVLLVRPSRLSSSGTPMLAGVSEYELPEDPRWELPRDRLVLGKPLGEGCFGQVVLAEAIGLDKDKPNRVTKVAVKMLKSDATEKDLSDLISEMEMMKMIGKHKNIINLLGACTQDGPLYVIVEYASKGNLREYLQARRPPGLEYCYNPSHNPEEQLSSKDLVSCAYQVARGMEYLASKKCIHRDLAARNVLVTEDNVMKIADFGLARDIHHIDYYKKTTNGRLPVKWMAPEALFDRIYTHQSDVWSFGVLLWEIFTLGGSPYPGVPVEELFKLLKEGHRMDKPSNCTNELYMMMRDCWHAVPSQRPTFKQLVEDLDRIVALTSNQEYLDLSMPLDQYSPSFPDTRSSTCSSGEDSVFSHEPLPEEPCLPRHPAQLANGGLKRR
Mitogen-activated protein kinase 7, sequence (Q13164 whole entry): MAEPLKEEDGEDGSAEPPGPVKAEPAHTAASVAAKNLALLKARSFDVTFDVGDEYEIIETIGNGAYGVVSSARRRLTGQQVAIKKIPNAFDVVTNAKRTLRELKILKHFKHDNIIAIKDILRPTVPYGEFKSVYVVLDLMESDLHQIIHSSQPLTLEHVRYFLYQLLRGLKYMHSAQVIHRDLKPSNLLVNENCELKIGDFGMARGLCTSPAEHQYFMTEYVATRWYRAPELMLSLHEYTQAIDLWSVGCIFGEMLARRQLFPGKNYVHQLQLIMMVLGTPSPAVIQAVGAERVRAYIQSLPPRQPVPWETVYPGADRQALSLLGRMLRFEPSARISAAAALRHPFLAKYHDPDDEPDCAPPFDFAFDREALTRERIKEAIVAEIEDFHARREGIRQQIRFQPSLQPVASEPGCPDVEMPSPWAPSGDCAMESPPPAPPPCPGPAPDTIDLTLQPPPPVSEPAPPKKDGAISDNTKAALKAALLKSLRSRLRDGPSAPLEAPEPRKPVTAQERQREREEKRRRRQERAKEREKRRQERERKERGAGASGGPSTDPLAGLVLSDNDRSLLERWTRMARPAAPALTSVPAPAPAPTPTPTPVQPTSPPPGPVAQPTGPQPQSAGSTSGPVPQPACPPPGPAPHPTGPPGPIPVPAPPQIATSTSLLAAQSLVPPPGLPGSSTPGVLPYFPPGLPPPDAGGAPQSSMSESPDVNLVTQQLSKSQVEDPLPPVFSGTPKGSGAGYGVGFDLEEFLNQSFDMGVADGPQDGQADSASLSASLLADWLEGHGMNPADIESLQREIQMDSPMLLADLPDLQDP
Fibroblast growth factor receptor 3, sequence (P22607 whole entry): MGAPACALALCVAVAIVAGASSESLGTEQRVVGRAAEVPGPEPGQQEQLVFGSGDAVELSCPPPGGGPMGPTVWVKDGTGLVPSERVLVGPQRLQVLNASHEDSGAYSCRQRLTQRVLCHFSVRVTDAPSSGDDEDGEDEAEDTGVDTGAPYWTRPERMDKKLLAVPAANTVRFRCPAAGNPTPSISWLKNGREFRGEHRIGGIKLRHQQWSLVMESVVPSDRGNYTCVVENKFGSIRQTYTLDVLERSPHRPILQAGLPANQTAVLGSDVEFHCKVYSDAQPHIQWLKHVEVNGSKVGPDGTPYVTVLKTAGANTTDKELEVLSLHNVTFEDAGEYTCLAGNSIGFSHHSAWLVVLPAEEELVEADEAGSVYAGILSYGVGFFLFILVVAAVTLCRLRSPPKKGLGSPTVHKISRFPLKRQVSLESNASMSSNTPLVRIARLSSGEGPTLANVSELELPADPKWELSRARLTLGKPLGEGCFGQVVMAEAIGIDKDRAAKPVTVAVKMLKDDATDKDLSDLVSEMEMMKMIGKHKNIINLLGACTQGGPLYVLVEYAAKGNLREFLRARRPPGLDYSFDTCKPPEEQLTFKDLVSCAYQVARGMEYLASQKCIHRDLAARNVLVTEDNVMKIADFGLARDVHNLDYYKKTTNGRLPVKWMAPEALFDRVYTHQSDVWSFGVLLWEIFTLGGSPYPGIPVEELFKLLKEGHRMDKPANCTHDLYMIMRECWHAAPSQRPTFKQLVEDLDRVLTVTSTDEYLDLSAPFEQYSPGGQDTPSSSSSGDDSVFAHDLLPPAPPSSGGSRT
Mast/stem cell growth factor receptor Kit, sequence (P10721 whole entry): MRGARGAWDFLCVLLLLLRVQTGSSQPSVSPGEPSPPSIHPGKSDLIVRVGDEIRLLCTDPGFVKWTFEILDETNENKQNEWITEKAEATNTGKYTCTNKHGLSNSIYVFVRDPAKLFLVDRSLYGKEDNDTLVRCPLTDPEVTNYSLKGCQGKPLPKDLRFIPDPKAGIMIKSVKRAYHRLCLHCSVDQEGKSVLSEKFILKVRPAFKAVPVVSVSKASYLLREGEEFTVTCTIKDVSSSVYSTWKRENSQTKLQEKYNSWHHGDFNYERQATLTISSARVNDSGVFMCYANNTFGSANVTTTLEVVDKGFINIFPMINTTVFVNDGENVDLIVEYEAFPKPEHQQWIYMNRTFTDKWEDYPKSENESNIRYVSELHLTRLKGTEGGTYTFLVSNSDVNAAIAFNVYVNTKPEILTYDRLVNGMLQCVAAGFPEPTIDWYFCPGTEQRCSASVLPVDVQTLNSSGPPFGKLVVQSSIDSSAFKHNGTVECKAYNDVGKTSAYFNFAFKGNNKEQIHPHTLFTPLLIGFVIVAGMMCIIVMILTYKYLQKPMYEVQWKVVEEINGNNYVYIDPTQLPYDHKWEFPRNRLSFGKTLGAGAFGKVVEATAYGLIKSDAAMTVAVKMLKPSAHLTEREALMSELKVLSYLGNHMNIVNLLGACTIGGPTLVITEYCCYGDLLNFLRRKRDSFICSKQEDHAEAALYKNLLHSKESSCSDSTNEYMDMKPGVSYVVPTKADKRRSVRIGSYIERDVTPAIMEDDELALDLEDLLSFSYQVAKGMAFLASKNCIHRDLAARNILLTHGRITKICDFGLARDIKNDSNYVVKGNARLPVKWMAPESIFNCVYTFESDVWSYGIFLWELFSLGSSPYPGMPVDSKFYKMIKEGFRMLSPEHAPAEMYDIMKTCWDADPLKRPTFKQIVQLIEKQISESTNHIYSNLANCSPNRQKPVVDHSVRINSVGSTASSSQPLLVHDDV

One may read the Kd as the concentration at which binding is half-saturated. Higher therefore signals a looser complex. In the case of `CCNCCCCNc1ncc2c(n1)N(Cc1cccc(NC(=O)CC)c1)C(=O)N(c1c(Cl)c(OC)cc(OC)c1Cl)C2` [FRIN-1], the dissociation constant Kd in [1] came to 3.1 nM; in [2], 5.6 nM; in [3], 5.4 nM; in [4], 280 nM; in [5], 1400 nM; in experiment [6], 250 nM. In addition, the equilibrium dissociation constant (Kd) was 130 nM in experiment [7]; 480 nM in experiment [8]; 2300 nM in experiment [9]; 49 nM in experiment [10]; 470 nM in experiment [11]; 340 nM in experiment [12].
